# Tests used:
# [1] = target: E3 ubiquitin-protein ligase CBL-B (Homo sapiens, UniProt Q13191); assay: Inhibition of N-terminal Avi-tagged human CBL-B (36 to 427 residues) incubated with 60 nM Src kinase for 1.5 hrs followed by incubation with fluorescently labeled UbcH5B-Ub for 1 hr and measured by TR-FRET assay; type: single protein
# [2] = Induction of anti-CD3/CD28 antibodies-stimulated human T cell activation at 4 uM assessed fold increase in IL-2 secretion measured by ELISA assay; type: functional, T cell line
# [3] = Induction of anti-CD3/CD28 antibodies-stimulated human T cell activation at 1 uM assessed fold increase in IL-2 secretion measured by ELISA assay; type: functional, T cell line
# [4] = Induction of anti-CD3/CD28 antibodies-stimulated human T cell activation at 0.3 uM assessed fold increase in IL-2 secretion measured by ELISA assay; type: functional, T cell line
# [5] = Induction of anti-CD3 antibodies-stimulated human T cell activation at 8 uM assessed fold increase in IL-2 secretion measured by ELISA assay; type: functional, T cell line; also: reference of the scale not given here
# [6] = Induction of anti-CD3 antibodies-stimulated human T cell activation at 1 uM assessed fold increase in IL-2 secretion measured by ELISA assay; type: functional, T cell line; also: reference of the scale not given here
# [7] = Induction of anti-CD3/CD28 antibodies-stimulated human T cell activation at 4 uM assessed fold increase in CD25 expression measured by ELISA assay; type: functional, T cell line
# [8] = Induction of anti-CD3/CD28 antibodies-stimulated human T cell activation at 1 uM assessed fold increase in CD25 expression measured by ELISA assay; type: functional, T cell line
# [9] = Induction of anti-CD3/CD28 antibodies-stimulated human T cell activation at 0.3 uM assessed fold increase in CD25 expression measured by ELISA assay; type: functional, T cell line
# [10] = Induction of anti-CD3 antibodies-stimulated human T cell activation at 8 uM assessed fold increase in CD25 expression measured by ELISA assay; type: functional, T cell line; also: reference of the scale not given here
# [11] = Induction of anti-CD3 antibodies-stimulated human T cell activation at 1 uM assessed fold increase in CD25 expression measured by ELISA assay; type: functional, T cell line; also: reference of the scale not given here
# E3 ubiquitin-protein ligase CBL-B, sequence (Q13191 whole entry, the tested form may be a part): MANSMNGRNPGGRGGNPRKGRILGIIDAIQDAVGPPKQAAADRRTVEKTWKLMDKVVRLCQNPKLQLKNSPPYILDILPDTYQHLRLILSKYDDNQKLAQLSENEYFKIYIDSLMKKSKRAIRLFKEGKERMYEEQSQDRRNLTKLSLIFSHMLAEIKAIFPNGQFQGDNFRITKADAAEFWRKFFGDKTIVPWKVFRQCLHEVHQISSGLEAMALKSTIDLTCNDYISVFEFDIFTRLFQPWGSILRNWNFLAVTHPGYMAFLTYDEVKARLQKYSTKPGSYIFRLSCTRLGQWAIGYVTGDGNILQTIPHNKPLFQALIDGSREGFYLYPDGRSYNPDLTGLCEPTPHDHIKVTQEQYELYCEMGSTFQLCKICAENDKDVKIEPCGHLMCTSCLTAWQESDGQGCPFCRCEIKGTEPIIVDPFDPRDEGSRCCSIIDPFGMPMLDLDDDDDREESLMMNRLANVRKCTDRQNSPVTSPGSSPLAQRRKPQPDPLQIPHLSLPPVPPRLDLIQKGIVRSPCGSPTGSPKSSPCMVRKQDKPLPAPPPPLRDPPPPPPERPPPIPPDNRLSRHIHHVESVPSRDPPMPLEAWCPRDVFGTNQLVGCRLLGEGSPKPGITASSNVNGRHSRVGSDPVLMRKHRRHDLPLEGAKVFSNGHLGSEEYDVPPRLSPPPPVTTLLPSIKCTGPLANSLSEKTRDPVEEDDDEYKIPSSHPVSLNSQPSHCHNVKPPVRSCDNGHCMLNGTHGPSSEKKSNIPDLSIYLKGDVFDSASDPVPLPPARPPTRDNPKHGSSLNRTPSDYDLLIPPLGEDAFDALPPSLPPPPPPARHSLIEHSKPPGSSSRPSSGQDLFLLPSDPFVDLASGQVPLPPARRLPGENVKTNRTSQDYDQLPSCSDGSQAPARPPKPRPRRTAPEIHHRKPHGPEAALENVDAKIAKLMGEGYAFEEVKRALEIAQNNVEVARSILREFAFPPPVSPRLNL
SMILES,IC50 [1] [nM],fold change (FC) [2],fold change (FC) [3],fold change (FC) [4],fold change (FC) [5],fold change (FC) [6],fold change (FC) [7],fold change (FC) [8],fold change (FC) [9],fold change (FC) [10],fold change (FC) [11]
C[C@H](Cc1nncn1C)c1cccc(NC(=O)c2ccnc(C3CC3)n2)c1,< 100,>=7.5,5,2.51,>=0.201,>=0.201,1.51,1.31,1.01,>=1.001,>=1.001
C[C@H](Cc1nncn1C)c1cccc(N2Cc3c(cc(C(=O)N4CC(O)C4)cc3C3CC3)C2=O)c1,< 100,2.51,1.01,1.01,>=0.201,0.151,1.01,1.01,1.01,>=1.001,0.801
"C[C@H](Cc1nncn1C)c1cccc(N2Cc3c(cc([C@H]4CCCNC4)cc3C(F)(F)F)C2=O)c1 (single isomer, unassigned)",< 100,>=7.5,5,2.51,>=0.201,>=0.201,1.51,1.51,1.31,>=1.001,0.801
Cc1cc(C(=O)Nc2cccc([C@H](C)Cc3nncn3C)c2)nc(C(F)(F)F)n1,< 100,>=7.5,>=7.5,2.51,>=0.201,>=0.201,>=1.76,1.51,1.01,>=1.001,0.801
C[C@H](Cc1nocc1C(F)(F)F)c1cccc(N2Cc3c(cc(C(=O)N4CC[C@H](F)C4)cc3C(F)(F)F)C2=O)c1,≤ 300,2.51,1.01,1.01,0.101,<=0.05,1.31,1.01,1.01,>=1.001,0.601
Cn1cnnc1CC1(c2cccc(N3Cc4c(cc(CN5CC(C(=O)O)C5)cc4C(F)(F)F)C3=O)c2)COC1,< 100,1.01,1.01,1.01,>=0.201,0.151,1.01,1.01,1.01,>=1.001,0.801
C[C@H](Cc1nncn1C)c1cc(NC2COC2)nc(N2Cc3c(cccc3C(F)(F)F)C2=O)c1,< 100,5,1.01,1.01,>=0.201,0.051,1.31,1.01,1.01,>=1.001,0.801
C[C@H](c1cc2c(c(C(F)(F)F)c1)CN(c1cccc([C@@](C)(F)C(F)(F)c3nncn3C)c1)C2=O)N1CC[C@H](F)C1,< 100,>=7.5,>=7.5,2.51,>=0.201,>=0.201,1.51,1.31,1.01,>=1.001,>=1.001

# Further lines, with some results ahead:
IC50 [1] [nM],SMILES,fold change (FC) [2],fold change (FC) [3],fold change (FC) [4],fold change (FC) [5],fold change (FC) [6],fold change (FC) [7],fold change (FC) [8],fold change (FC) [9],fold change (FC) [10],fold change (FC) [11]
< 100,C[C@H](Cc1nncn1C)c1cccc(N2Cc3c(cc([C@H](C)N4CC(O)C4)cc3C(F)(F)F)C2=O)c1,>=7.5,>=7.5,5,>=0.201,>=0.201,1.31,1.31,1.01,>=1.001,>=1.001
< 100,C[C@H](Cc1nncn1C)c1cccc(NC(=O)c2cccc(C(F)(F)F)n2)c1,>=7.5,5,2.51,>=0.201,>=0.201,>=1.76,>=1.76,>=1.76,>=1.001,>=1.001
< 100,Cn1cnnc1C(F)(F)[C@](C)(F)c1cccc(N2Cc3c(cc(CN4CC[C@H](C#N)C4)cc3C(F)(F)F)C2=O)c1,>=7.5,>=7.5,5,>=0.201,>=0.201,1.31,1.31,1.01,>=1.001,>=1.001
< 100,CC(O)c1cc2c(c(C(F)(F)F)c1)CN(c1cccc([C@@](C)(F)C(F)(F)c3nncn3C)c1)C2=O (some centres undefined),5,1.01,1.01,>=0.201,0.051,1.01,1.01,1.01,>=1.001,0.801
< 100,CC(=O)N1CCN(c2ccc3cnc(C(=O)Nc4cccc([C@H](C)Cc5nncn5C)c4)cc3c2)CC1.O=C(O)C(F)(F)F,>=7.5,5,2.51,>=0.201,>=0.201,1.51,1.01,1.01,>=1.001,0.601
< 100,C[C@H](Cc1nncn1C)c1cccc(NC(=O)c2ccnc3ccnn23)c1,2.51,1.01,1.01,0.101,0.051,1.01,1.01,1.01,>=1.001,0.801
< 100,Cn1cnnc1CC1(c2cccc(NC(=O)c3cc(C4CC4)nc(C4CC4)n3)c2)COC1,>=7.5,>=7.5,2.51,>=0.201,0.151,1.31,1.01,1.01,>=1.001,>=1.001
< 100,C[C@H](Cc1nncn1C)c1cccc(N2Cc3c(cc(C4CC4)cc3C(F)(F)F)C2=O)c1,2.51,1.01,1.01,>=0.201,>=0.201,1.31,1.01,1.01,>=1.001,0.801
< 100,Cn1cnnc1CC1(c2cccc(N3Cc4c(cc(CN5C[C@@H](F)[C@@H](F)C5)cc4C(F)(F)F)C3=O)c2)COC1,>=7.5,>=7.5,>=7.5,>=0.201,0.151,1.51,1.31,1.31,>=1.001,0.801
< 100,C[C@H](Cc1nncn1C)c1cc(OCC(F)F)nc(N2Cc3c(cccc3C(F)(F)F)C2=O)c1,>=7.5,2.51,2.51,>=0.201,0.151,1.31,1.01,1.01,>=1.001,0.801
< 100,C[C@H](Cc1nncn1C)c1cccc(N2Cc3c(cc(-c4ccn[nH]4)cc3C(F)(F)F)C2=O)c1,>=7.5,5,2.51,>=0.201,>=0.201,1.31,1.31,1.01,>=1.001,>=1.001
